This data set is described as follows: Absorbance at photostationary state (PSS) under simulated sunlight or 365 nm light. The data set is classed as physicochemical. Details: λ max: unit not given here. As to conditions: for Absorbance at PSS, 365 nm: 365 nm light source; for Absorbance at PSS, 365 nm / Absorbance at PSS, full / Absorbance at PSS, +UV / λ max: 2.0×10^−5 M in triglyme; for sensitivity index: ratio of PSS under 365 nm light to PSS under full spectrum light (without UV blocking film); for Absorbance at PSS, full: simulated sunlight (QSUN solar simulator), no UV blocking film; for Absorbance at PSS, +UV: simulated sunlight with UV blocking film (cutoff 370 nm); for λ max: wavelength of maximum absorbance in the visible range, ring-closed isoform. On the procedure: Absorbance at a PSS for selected compounds was measured at 2.0×10^−5 M in triglyme in the absence (full) or presence (+UV) of a UV blocking film with a UV cutoff wavelength of 370 nm (10% transmission at 370 nm), using simulated sunlight (QSUN solar simulator) as a light source, or a 365 nm light source; these PSS are reported in Tables 1.5. […] “Switch” refers to the ability (yes or no) of the compound to be reversibly converted under photochromic and electrochromic conditions between a ring-open isomer and ring-closed isomer.
A sensitivity index (SI) is a ratio of the PSS under 365 nm light to the PSS under full spectrum light (without UV blocking film). SI is an indicator of the sensitivity of the compound to the composition of the incident light (a change in the ratio of UV and visible components)—photochemical ring-opening is induced by a portion of the visible light spectrum.
Photostationary State (PSS) UV/Vis spectra are obtained using an OceanOptics™ Spectrophotometer until absorption in the visible region of the spectrum stabilizes. A 2×10^−5M solution of compound in solvent is prepared, and photofaded using visible light until absorption in the visible region of the spectrum stabilizes. The sample is then irradiated with simulated sunlight (QSUN SS-150 Solar Simulator with xenon arc lamp) until the absorption spectrum stabilizes. To obtain PSS in the presence of a UV blocking film, a second sample is prepared and irradiated as described, with a UV blocking film inserted in the light path when irradiating.

In the case of `Cc1ccc(-c2sc(-c3cccs3)cc2C2=C(c3cc(-c4cccs4)sc3-c3ccc(C)s3)C(F)(F)C(F)(F)C2(F)F)s1` [S027, 3′,3″″-(perfluorocyclopent-1-ene-1,2-diyl)bis(5-methyl-2,2′:5′,2″-terthiophene)], the “Absorbance at PSS, 365 nm” value was 0.281; the sensitivity index is 1.80; the “Absorbance at PSS, full” value is listed as 0.156; the “Absorbance at PSS, +UV” value was 0.116. The compound also returned a λ max of 645.
With `FC1(F)C(c2c(-c3ccccc3)sc3ccccc23)=C(c2c(-c3ccccc3)sc3ccccc23)C(F)(F)C1(F)F` [S014, 3,3′-(perfluorocyclopent-1-ene-1,2-diyl)bis(2-phenylbenzo[b]thiophene)], the “Absorbance at PSS, 365 nm” value is given as 0.011; the sensitivity index is listed as 2.75; the “Absorbance at PSS, full” value is listed as 0.004; the “Absorbance at PSS, +UV” value is on record as 0.006. The λ max is 525.
As for `COc1ccc2c(C3=C(c4c(-c5ccc(C(C)(C)C)cc5)oc5cc(OC)ccc45)C(F)(F)C(F)(F)C3(F)F)c(-c3ccc(C(C)(C)C)cc3)oc2c1` [S151, 3,3′-(perfluorocyclopent-1-ene-1,2-diyl)bis(2-(4-(tert-butyl)phenyl)-6-methoxybenzofuran)], the “Absorbance at PSS, 365 nm” value is reported as 0.403; the sensitivity index was 3.80; the “Absorbance at PSS, full” value is reported as 0.106; the “Absorbance at PSS, +UV” value is 0.056. Also, the λ max is 514.
In the case of `COc1ccc(-c2sc(-c3ccc(OCCOc4ccc(N(c5ccc(Cl)cc5)c5ccc(Cl)cc5)cc4)cc3)cc2C2=C(c3cc(-c4ccc(OCCOc5ccc(N(c6ccc(Cl)cc6)c6ccc(Cl)cc6)cc5)cc4)sc3-c3ccc(OC)cc3)C(F)(F)C(F)(F)C2(F)F)cc1` [S090, 4,4′-(((((4,4′-(perfluorocyclopent-1-ene-1,2-diyl)bis(5-(4-methoxyphenyl)thiophene-4,2-diyl))bis(4,1-phenylene))bis(oxy))bis(ethane-2,1-diyl))bis(oxy))bis(N,N-bis(4-chlorophenyl)aniline)], the “Absorbance at PSS, 365 nm” value is reported as 0.183; the sensitivity index was 1.71; the “Absorbance at PSS, full” value was 0.107; the “Absorbance at PSS, +UV” value is on record as 0.058. The compound also had a λ max of 624.
In the case of `Cc1sc(-c2cc(C3=C(c4cc(-c5sc(C)c6c5OCCO6)sc4-c4sc(C)c5c4OCCO5)C(F)(F)C(F)(F)C3(F)F)c(-c3sc(C)c4c3OCCO4)s2)c2c1OCCO2` [S036], the “Absorbance at PSS, 365 nm” value was 0.174; the sensitivity index is given as 7.25; the “Absorbance at PSS, full” value is recorded as 0.024; the “Absorbance at PSS, +UV” value is 0.016. Further, the λ max was 665.
With `CCOc1ccc(-c2cc(C3=C(c4cc(-c5ccc(OCC)cc5)sc4-c4ccc(OCC)cc4)C(F)(F)C(F)(F)C3(F)F)c(-c3ccc(OCC)cc3)s2)cc1` [S091, 3,3′-(perfluorocyclopent-1-ene-1,2-diyl)bis(2,5-bis(4-ethoxyphenyl)thiophene)], the “Absorbance at PSS, 365 nm” value is 0.287; the sensitivity index is 1.75; the “Absorbance at PSS, full” value is recorded as 0.164; the “Absorbance at PSS, +UV” value is on record as 0.095. Besides, the λ max is reported as 629.
With `COc1ccc(-c2cc(C3=C(c4cc(-c5ccc(OC)cc5)sc4-c4ccc(C#N)cc4)C(F)(F)C(F)(F)C3(F)F)c(-c3ccc(C#N)cc3)s2)cc1` [S086, 4,4′-(3,3′-(perfluorocyclopent-1-ene-1,2-diyl)bis(5-(4-methoxyphenyl)thiophene-3,2-diyl))dibenzonitrile], the “Absorbance at PSS, 365 nm” value is recorded as 0.231; the sensitivity index is given as 2.01; the “Absorbance at PSS, full” value is given as 0.115; the “Absorbance at PSS, +UV” value is listed as 0.071. The compound further came in with a λ max of 610.
In the case of `COc1ccc(-c2oc3ccc(OC)cc3c2C2=C(c3c(-c4ccc(OC)cc4)oc4ccc(OC)cc34)C(F)(F)C(F)(F)C2(F)F)cc1` [S083], the “Absorbance at PSS, 365 nm” value was 0.167; the sensitivity index is given as 7.26; the “Absorbance at PSS, full” value is listed as 0.023; the “Absorbance at PSS, +UV” value was 0.008. This compound also displayed a λ max of 550.
With `CC(C)(C)c1ccc(-c2cc(C3=C(c4cc(-c5ccc(C(C)(C)C)s5)sc4-c4ccc(OCCCO)cc4)C(F)(F)C(F)(F)C3(F)F)c(-c3ccc(OCCCO)cc3)s2)s1` [S111, 3,3′-(4,4′-(4,4′-(perfluorocyclopent-1-ene-1,2-diyl)bis(5′-tert-butyl-2,2′-bithiophene-5,4-diyl))bis(4,1-phenylene)bis(oxy))dipropan-1-ol], the “Absorbance at PSS, 365 nm” value is 0.322; the sensitivity index is 1.10; the “Absorbance at PSS, full” value is 0.292; the “Absorbance at PSS, +UV” value was 0.192. The λ max is recorded as 646.
In the case of `COc1ccc(-c2sc(-c3cc4ccccc4s3)cc2C2=C(c3cc(-c4cc5ccccc5s4)sc3-c3ccc(OC)cc3)C(F)(F)C(F)(F)C2(F)F)cc1` [S110, 2,2′-(4,4′-(perfluorocyclopent-1-ene-1,2-diyl)bis(5-(4-methoxyphenyl)thiophene-4,2-diyl))bis(benzo[b]thiophene)], the “Absorbance at PSS, 365 nm” value is recorded as 0.414; the sensitivity index is listed as 1.20; the “Absorbance at PSS, full” value is 0.346; the “Absorbance at PSS, +UV” value was 0.221. This compound came in with a λ max of 653.
For the compound `O=C(O)c1ccc(-c2cc(C3=C(c4cc(-c5ccc(C(=O)O)s5)sc4-c4ccc(C(=O)O)s4)C(F)(F)C(F)(F)C3(F)F)c(-c3ccc(C(=O)O)s3)s2)s1` [S024], the “Absorbance at PSS, 365 nm” value is 0.102; the sensitivity index is listed as 5.10; the “Absorbance at PSS, full” value is reported as 0.02; the “Absorbance at PSS, +UV” value is 0.018. For the same compound, the λ max is 650.
In the case of `CC(=O)c1ccc(-c2cc(C3=C(c4cc(-c5ccccc5)sc4-c4ccc(C(C)(C)C)cc4)C(F)(F)C(F)(F)C3(F)F)c(-c3ccc(C(C)(C)C)cc3)s2)cc1` [S065, 1-(4-(5-(4-tert-butylphenyl)-4-(2-(2-(4-tert-butylphenyl)-5-phenylthiophen-3-yl)-3,3,4,4,5,5-hexafluorocyclopent-1-enyl)thiophen-2-yl)phenyl)ethanone], the “Absorbance at PSS, 365 nm” value is listed as 0.281; the sensitivity index was 2.04; the “Absorbance at PSS, full” value is 0.138; the “Absorbance at PSS, +UV” value is on record as 0.054. Moreover, the λ max is 625.
Regarding `CCOCCOCCOCCOc1ccc2c(C3=C(c4c(-c5ccc(C(C)(C)C)cc5)oc5cc(OCCOCCOCCOCC)ccc45)C(F)(F)C(F)(F)C3(F)F)c(-c3ccc(C(C)(C)C)cc3)oc2c1` [S161, 3,3′-(perfluorocyclopent-1-ene-1,2-diyl)bis(2-(4-(tert-butyl)phenyl)-6-(2-(2-(2-ethoxyethoxy)ethoxy)ethoxy)benzofuran)], the “Absorbance at PSS, 365 nm” value is recorded as 0.455; the sensitivity index is reported as 3.73; the “Absorbance at PSS, full” value was 0.122; the “Absorbance at PSS, +UV” value was 0.06. Also, the λ max is 511.
Regarding `CC(C)(C)c1ccc(-c2sc(-c3ccc(C(C)(C)O)cc3)cc2C2=C(c3cc(-c4ccc(C(C)(C)O)cc4)sc3-c3ccc(C(C)(C)C)cc3)C(F)(F)C(F)(F)C2(F)F)cc1` [S067, 2,2′-((4,4′-(perfluorocyclopent-1-ene-1,2-diyl)bis(5-(4-(tert-butyl)phenyl)thiophene-4,2-diyl))bis(4,1-phenylene))bis(propan-2-ol)], the “Absorbance at PSS, 365 nm” value is listed as 0.182; the sensitivity index is recorded as 2.68; the “Absorbance at PSS, full” value is reported as 0.068; the “Absorbance at PSS, +UV” value is 0.03. The compound further gave a λ max of 615.
As for `CC(C)(C)c1ccc(-c2oc3cc4c(cc3c2C2=C(c3c(-c5ccc(C(C)(C)C)cc5)oc5cc6c(cc35)OCO6)C(F)(F)C(F)(F)C2(F)F)OCO4)cc1` [S163, 7,7′-(perfluorocyclopent-1-ene-1,2-diyl)bis(6-(4-(tert-butyl)phenyl)-[1,3]dioxolo[4,5-f]benzofuran)], the “Absorbance at PSS, 365 nm” value was 0.533; the sensitivity index is reported as 2.12; the “Absorbance at PSS, full” value is on record as 0.252; the “Absorbance at PSS, +UV” value is given as 0.116. For the same compound, the λ max is 588.
Take `FC1(F)C(c2cc(-c3ccc(/C=C/c4ccccc4)s3)sc2-c2cccs2)=C(c2cc(-c3ccc(/C=C/c4ccccc4)s3)sc2-c2cccs2)C(F)(F)C1(F)F` [S038, (E)-4′,4″″-(perfluorocyclopent-1-ene-1,2-diyl)bis(5-((E)-styryl)-2,2′:5′,2″-terthiophene)]: the “Absorbance at PSS, 365 nm” value is recorded as 0.642; the sensitivity index was 1.41; the “Absorbance at PSS, full” value is on record as 0.456; the “Absorbance at PSS, +UV” value is reported as 0.431. This compound showed a λ max of 690.

(Values after patent US10072023B2, “Diarylethene compounds and uses thereof” (SWITCH MATERIALS, INC., priority 2011, dated 2018).)
